Results reported in patent US20230322747A1, “OXADIAZOLE HDAC6 INHIBITORS AND USES THEREOF” (Eikonizo Therapeutics, Inc., priority 2022, published 2023).

What was measured:
[1] = target: Human HDAC6 (Homo sapiens (Human), UniProt Q9UBN7); experiment: HDAC6 enzymatic activity assay (Caliper endpoint or fluorogenic format); format: biochemical; conditions: for IC50: in vitro enzymatic; for Selectivity (6 v 8) (fold): ratio of HDAC8 IC50/HDAC6 IC50
[2] = target: Human HDAC8 (Homo sapiens (Human), UniProt Q9BY41); experiment: Caliper endpoint assay for HDAC8 enzymatic activity; format: biochemical; conditions: in vitro enzymatic
Human HDAC8, sequence (Q9BY41 whole entry): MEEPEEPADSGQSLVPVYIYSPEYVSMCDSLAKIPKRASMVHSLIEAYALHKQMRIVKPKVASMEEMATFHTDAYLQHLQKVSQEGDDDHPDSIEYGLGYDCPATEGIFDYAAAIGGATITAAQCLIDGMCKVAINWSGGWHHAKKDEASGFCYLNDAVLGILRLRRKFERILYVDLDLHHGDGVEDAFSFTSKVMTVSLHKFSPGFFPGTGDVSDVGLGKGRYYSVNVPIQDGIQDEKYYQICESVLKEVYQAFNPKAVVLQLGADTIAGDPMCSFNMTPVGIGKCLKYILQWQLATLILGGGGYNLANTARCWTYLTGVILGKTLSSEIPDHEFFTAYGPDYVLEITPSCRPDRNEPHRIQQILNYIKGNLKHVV

Human HDAC6, sequence (Q9UBN7 whole entry): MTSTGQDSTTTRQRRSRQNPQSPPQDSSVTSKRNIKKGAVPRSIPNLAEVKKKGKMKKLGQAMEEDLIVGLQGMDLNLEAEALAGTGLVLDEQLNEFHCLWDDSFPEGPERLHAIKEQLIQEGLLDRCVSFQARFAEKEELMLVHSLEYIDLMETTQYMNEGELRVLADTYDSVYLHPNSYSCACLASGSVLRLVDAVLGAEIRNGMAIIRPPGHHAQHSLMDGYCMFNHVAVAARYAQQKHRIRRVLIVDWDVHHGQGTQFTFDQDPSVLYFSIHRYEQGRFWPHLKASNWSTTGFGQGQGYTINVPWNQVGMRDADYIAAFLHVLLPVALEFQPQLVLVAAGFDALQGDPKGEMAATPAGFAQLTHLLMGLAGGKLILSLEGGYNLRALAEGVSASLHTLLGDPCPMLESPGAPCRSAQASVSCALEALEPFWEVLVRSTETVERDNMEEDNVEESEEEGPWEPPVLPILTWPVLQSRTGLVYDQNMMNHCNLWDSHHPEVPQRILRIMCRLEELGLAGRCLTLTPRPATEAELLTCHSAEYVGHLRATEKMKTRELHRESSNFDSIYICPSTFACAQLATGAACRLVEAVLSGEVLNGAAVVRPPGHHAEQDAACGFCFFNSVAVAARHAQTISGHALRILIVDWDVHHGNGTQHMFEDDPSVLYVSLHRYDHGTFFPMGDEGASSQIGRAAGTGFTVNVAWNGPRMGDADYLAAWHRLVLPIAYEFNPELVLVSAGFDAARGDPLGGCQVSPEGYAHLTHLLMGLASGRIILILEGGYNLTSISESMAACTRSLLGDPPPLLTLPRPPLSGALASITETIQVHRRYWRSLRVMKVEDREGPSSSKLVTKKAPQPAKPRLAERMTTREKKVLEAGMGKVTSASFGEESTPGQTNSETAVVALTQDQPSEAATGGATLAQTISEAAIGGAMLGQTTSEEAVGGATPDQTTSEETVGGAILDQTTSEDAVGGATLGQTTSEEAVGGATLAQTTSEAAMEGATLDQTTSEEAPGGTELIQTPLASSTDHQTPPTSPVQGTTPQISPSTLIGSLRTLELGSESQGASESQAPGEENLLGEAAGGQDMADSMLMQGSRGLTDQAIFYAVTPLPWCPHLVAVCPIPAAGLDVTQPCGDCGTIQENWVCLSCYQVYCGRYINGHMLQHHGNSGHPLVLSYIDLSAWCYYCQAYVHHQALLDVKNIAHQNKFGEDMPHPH

N#Cc1ccc(F)c(OCc2ccc(-c3nnc(C(F)F)o3)cn2)c1 [Compound 49]
IC50 [1]: 1 to 100 nM
Selectivity (6 v 8) (fold) [1]: IV (IV: >100-1000)
IC50 [2]: 10000 to 100000 nM

N#Cc1cc(F)cc(OCc2ccc(-c3nnc(C(F)F)o3)cn2)c1 [Compound 51]
IC50 [1]: 1 to 100 nM
Selectivity (6 v 8) (fold) [1]: V (V: >1000)
IC50 [2]: > 100000 nM

FC(F)c1nnc(-c2ccc(COc3cncc4ccccc34)nc2)o1 [Compound 88]
IC50 [1]: 1 to 100 nM
Selectivity (6 v 8) (fold) [1]: V (V: >1000)
IC50 [2]: 10000 to 100000 nM

FC(F)c1nnc(-c2ccc(COCC34CC5CC(CC(C5)O3)C4)nc2)o1 [Compound 20, 2-(6-(((2-oxaadamantan-1-yl)methoxy)methyl)pyridin-3-yl)-5-(difluoromethyl)-1,3,4-oxadiazole]
IC50 [1]: 1 to 100 nM
Selectivity (6 v 8) (fold) [1]: V (V: >1000)
IC50 [2]: > 100000 nM

Cn1nccc1OCc1ccc(-c2nnc(C(F)F)o2)cn1 [Compound 67]
IC50 [1]: 100 to 1000 nM
Selectivity (6 v 8) (fold) [1]: V (V: >1000)
IC50 [2]: > 100000 nM

N#Cc1ccc(OCc2ccc(-c3nnc(C(F)F)o3)cn2)cc1F [Compound 52]
IC50 [1]: 1 to 100 nM
Selectivity (6 v 8) (fold) [1]: V (V: >1000)
IC50 [2]: > 100000 nM

FC(F)c1nnc(-c2ccc(COc3cncc(C(F)(F)F)c3)nc2)o1 [Compound 93]
IC50 [1]: 1 to 100 nM
Selectivity (6 v 8) (fold) [1]: V (V: >1000)
IC50 [2]: > 100000 nM

N#Cc1c(F)cccc1OCc1ccc(-c2nnc(C(F)F)o2)cn1 [Compound 29]
IC50 [1]: 1 to 100 nM
Selectivity (6 v 8) (fold) [1]: IV (IV: >100-1000)
IC50 [2]: 10000 to 100000 nM

Cc1cc(OCc2ccc(-c3nnc(C(F)F)o3)cn2)ccn1 [Compound 74]
IC50 [1]: 1 to 100 nM
Selectivity (6 v 8) (fold) [1]: V (V: >1000)
IC50 [2]: > 100000 nM

FC(F)c1nnc(-c2ccc(COc3cccc4cccnc34)nc2)o1 [Compound 10, 2-(difluoromethyl)-5-(6-((quinolin-8-yloxy)methyl)pyridin-3-yl)-1,3,4-oxadiazole]
IC50 [1]: 1 to 100 nM
Selectivity (6 v 8) (fold) [1]: V (V: >1000)
IC50 [2]: > 100000 nM

Cc1nc(Cl)cc(OCc2ccc(-c3nnc(C(F)F)o3)cn2)n1 [Compound 80]
IC50 [1]: 1 to 100 nM
Selectivity (6 v 8) (fold) [1]: III (III: >10-100)
IC50 [2]: 1000 to 10000 nM

FC(F)c1nnc(-c2ccc(COc3ccc4cnccc4c3)nc2)o1 [Compound 32]
IC50 [1]: 1 to 100 nM
Selectivity (6 v 8) (fold) [1]: V (V: >1000)
IC50 [2]: 10000 to 100000 nM

Fc1cc(Cl)ccc1OCc1ccc(-c2nnc(C(F)F)o2)cn1 [Compound 3, 2-(6-((4-chloro-2-fluorophenoxy)methyl)pyridin-3-yl)-5-(difluoromethyl)-1,3,4-oxadiazole]
IC50 [1]: 1 to 100 nM
Selectivity (6 v 8) (fold) [1]: V (V: >1000)
IC50 [2]: > 100000 nM

FC(F)c1nnc(-c2ccc(COc3ccc(C(F)(F)F)nc3)nc2)o1 [Compound 91]
IC50 [1]: 1 to 100 nM
Selectivity (6 v 8) (fold) [1]: V (V: >1000)
IC50 [2]: > 100000 nM

FC(F)c1nnc(-c2ccc(COc3ccc4nccnc4c3)nc2)o1 [Compound 36]
IC50 [1]: 1 to 100 nM
Selectivity (6 v 8) (fold) [1]: V (V: >1000)
IC50 [2]: > 100000 nM

CN(C)CCn1cnc2cc(OCc3ccc(-c4nnc(C(F)F)o4)cn3)ccc21 [Compound 210]
IC50 [1]: 1000 to 10000 nM
Selectivity (6 v 8) (fold) [1]: III (III: >10-100)
IC50 [2]: > 100000 nM

FC(F)c1nnc(-c2ccc(COc3ccc(Cl)cc3)nc2)o1 [Compound 8, 2-(6-((4-chlorophenoxy)methyl)pyridin-3-yl)-5-(difluoromethyl)-1,3,4-oxadiazole]
IC50 [1]: 1 to 100 nM
Selectivity (6 v 8) (fold) [1]: V (V: >1000)
IC50 [2]: > 100000 nM

FC(F)c1nnc(-c2ccc(COc3ccc4c(c3)CCCC4)nc2)o1 [Compound 54]
IC50 [1]: 1 to 100 nM
Selectivity (6 v 8) (fold) [1]: V (V: >1000)
IC50 [2]: > 100000 nM

Fc1cnc(OCc2ccc(-c3nnc(C(F)F)o3)cn2)nc1 [Compound 106]
IC50 [1]: 100 to 1000 nM
Selectivity (6 v 8) (fold) [1]: V (V: >1000)
IC50 [2]: > 100000 nM

CCn1ccc(OCc2ccc(-c3nnc(C(F)F)o3)cn2)n1 [Compound 69]
IC50 [1]: 100 to 1000 nM
Selectivity (6 v 8) (fold) [1]: IV (IV: >100-1000)
IC50 [2]: 10000 to 100000 nM

N#Cc1ccccc1OCc1ccc(-c2nnc(C(F)F)o2)cn1 [Compound 42]
IC50 [1]: 1 to 100 nM
Selectivity (6 v 8) (fold) [1]: V (V: >1000)
IC50 [2]: > 100000 nM

FC(F)c1nnc(-c2ccc(COc3cccc4nccnc34)nc2)o1 [Compound 55]
IC50 [1]: 1 to 100 nM
Selectivity (6 v 8) (fold) [1]: V (V: >1000)
IC50 [2]: > 100000 nM

Cc1nc2cc(OCc3ccc(-c4nnc(C(F)F)o4)cn3)ccc2o1 [Compound 61]
IC50 [1]: 1 to 100 nM
Selectivity (6 v 8) (fold) [1]: IV (IV: >100-1000)
IC50 [2]: 10000 to 100000 nM

Cc1cccc(OCc2ccc(-c3nnc(C(F)F)o3)cn2)n1 [Compound 72]
IC50 [1]: 100 to 1000 nM
Selectivity (6 v 8) (fold) [1]: V (V: >1000)
IC50 [2]: > 100000 nM

FC(F)c1nnc(-c2ccc(COc3ccc(C4CC4)nn3)nc2)o1 [Compound 83]
IC50 [1]: 100 to 1000 nM
Selectivity (6 v 8) (fold) [1]: IV (IV: >100-1000)
IC50 [2]: 10000 to 100000 nM

CC(C)n1cnc2cc(OCc3ccc(-c4nnc(C(F)F)o4)cn3)ccc21 [Compound 212]
IC50 [1]: 100 to 1000 nM
Selectivity (6 v 8) (fold) [1]: IV (IV: >100-1000)
IC50 [2]: > 100000 nM

N#Cc1cccc(F)c1OCc1ccc(-c2nnc(C(F)F)o2)cn1 [Compound 48]
IC50 [1]: 1 to 100 nM
Selectivity (6 v 8) (fold) [1]: V (V: >1000)
IC50 [2]: > 100000 nM

FC(F)c1nnc(-c2ccc(COc3ccon3)nc2)o1 [Compound 64]
IC50 [1]: 100 to 1000 nM
Selectivity (6 v 8) (fold) [1]: V (V: >1000)
IC50 [2]: > 100000 nM

N#Cc1cc(OCc2ccc(-c3nnc(C(F)F)o3)cn2)ccc1F [Compound 30]
IC50 [1]: 1 to 100 nM
Selectivity (6 v 8) (fold) [1]: V (V: >1000)
IC50 [2]: > 100000 nM

CCn1cnc2cc(OCc3ccc(-c4nnc(C(F)F)o4)cn3)ccc21 [Compound 211]
IC50 [1]: 100 to 1000 nM
Selectivity (6 v 8) (fold) [1]: IV (IV: >100-1000)
IC50 [2]: > 100000 nM

FC(F)c1nnc(-c2ccc(COc3cccc4cnccc34)nc2)o1 [Compound 35]
IC50 [1]: 1 to 100 nM
Selectivity (6 v 8) (fold) [1]: V (V: >1000)
IC50 [2]: > 100000 nM

FC(F)c1nnc(-c2ccc(COc3cccc4ocnc34)nc2)o1 [Compound 28]
IC50 [1]: 1 to 100 nM
Selectivity (6 v 8) (fold) [1]: V (V: >1000)
IC50 [2]: > 100000 nM

N#Cc1cccc(OCc2ccc(-c3nnc(C(F)F)o3)cn2)c1 [Compound 26]
IC50 [1]: 1 to 100 nM
Selectivity (6 v 8) (fold) [1]: V (V: >1000)
IC50 [2]: > 100000 nM

FC(F)c1nnc(-c2ccc(COc3ccncc3)nc2)o1 [Compound 18, 2-(difluoromethyl)-5-(6-((pyridin-4-yloxy)methyl)pyridin-3-yl)-1,3,4-oxadiazole]
IC50 [1]: 1 to 100 nM
Selectivity (6 v 8) (fold) [1]: V (V: >1000)
IC50 [2]: > 100000 nM

FC(F)c1nnc(-c2ccc(COc3ccc4ocnc4c3)nc2)o1 [Compound 53]
IC50 [1]: 1 to 100 nM
Selectivity (6 v 8) (fold) [1]: V (V: >1000)
IC50 [2]: > 100000 nM

Cc1nc(OCc2ccc(-c3nnc(C(F)F)o3)cn2)c2ccccc2n1 [Compound 97]
IC50 [1]: 1 to 100 nM
Selectivity (6 v 8) (fold) [1]: V (V: >1000)
IC50 [2]: > 100000 nM

Cc1cccnc1OCc1ccc(-c2nnc(C(F)F)o2)cn1 [Compound 73]
IC50 [1]: 100 to 1000 nM
Selectivity (6 v 8) (fold) [1]: V (V: >1000)
IC50 [2]: > 100000 nM

FC(F)c1nnc(-c2ccc(COc3ccc4ncccc4c3)nc2)o1 [Compound 62]
IC50 [1]: 1 to 100 nM
Selectivity (6 v 8) (fold) [1]: V (V: >1000)
IC50 [2]: 10000 to 100000 nM

Cn1ncc2c(OCc3ccc(-c4nnc(C(F)F)o4)cn3)cccc21 [Compound 58]
IC50 [1]: 1 to 100 nM
Selectivity (6 v 8) (fold) [1]: V (V: >1000)
IC50 [2]: > 100000 nM

Cc1ccc(OCc2ccc(-c3nnc(C(F)F)o3)cn2)cn1 [Compound 70]
IC50 [1]: 100 to 1000 nM
Selectivity (6 v 8) (fold) [1]: V (V: >1000)
IC50 [2]: > 100000 nM

Cc1noc2cc(OCc3ccc(-c4nnc(C(F)F)o4)cn3)ccc12 [Compound 59]
IC50 [1]: 1 to 100 nM
Selectivity (6 v 8) (fold) [1]: V (V: >1000)
IC50 [2]: > 100000 nM

CC(C)n1cnc2ccc(OCc3ccc(-c4nnc(C(F)F)o4)cn3)cc21 [Compound 203]
IC50 [1]: 1000 to 10000 nM
Selectivity (6 v 8) (fold) [1]: III (III: >10-100)
IC50 [2]: > 100000 nM

Fc1ccc(OCc2ccc(-c3nnc(C(F)F)o3)cn2)c(Cl)c1 [Compound 4, 2-(6-((2-chloro-4-fluorophenoxy)methyl)pyridin-3-yl)-5-(difluoromethyl)-1,3,4-oxadiazole]
IC50 [1]: 1 to 100 nM
Selectivity (6 v 8) (fold) [1]: V (V: >1000)
IC50 [2]: > 100000 nM
